Reference: ChEMBL document CHEMBL1201862, “PubChem BioAssay data set” (2004)
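How tested: cells in 96-well plates exposed to compound for 48 hours at five concentrations. Here, GI50 denotes the concentration required for 50% inhibition of growth.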 Active and inactive are the calls of the source. No stated cut-off is given here; in the data, active = GI50 up to about 1.1 µM and inactive = higher.

Columns and labels:
Experiment in all cases: NCI tumour cell line growth inhibition, 48 h
[1] = system: SF-539
[2] = system: OVCAR-3
[3] = system: Malme-3M
[4] = system: HOP-92
[5] = system: U-251
[6] = system: SW-620
[7] = system: HCT-15
[8] = system: CAKI-1
[9] = system: MDA-MB-435
[10] = system: CCRF-CEM
[11] = system: SK-MEL-28
[12] = system: HT-29
[13] = system: HCC 2998
[14] = system: COLO 205
[15] = system: SF-268
[16] = system: HOP-62
[17] = system: SK-MEL-2
[18] = system: OVCAR-8
[19] = system: NCI-H522

SMILES	GI50 [1]	GI50 [2]	GI50 [3]	GI50 [4]	GI50 [5]	GI50 [6]	GI50 [7] [µM]	GI50 [8]	GI50 [9]	GI50 [10]	GI50 [11]	GI50 [12]	GI50 [13]	GI50 [14]	GI50 [15]	GI50 [16]	GI50 [17]	GI50 [18]	GI50 [19]
NC(Cc1ccc2nc3c4ccccc4c(=O)cc-3oc2c1)C(=O)O (stereo unspecified)	> 100 µM (inactive)	74.1 µM (inactive)	14.8 µM (inactive)	> 100 µM (inactive)	> 100 µM (inactive)	> 100 µM (inactive)	> 100	> 100 µM (inactive)	18.2 µM (inactive)	> 100 µM (inactive)	> 100 µM (inactive)	71.3 µM (inactive)	> 100 µM (inactive)	20.9 µM (inactive)	> 100 µM (inactive)	> 100 µM (inactive)	53.3 µM (inactive)	–	–
COc1ccccc1/C(=N\OCCC(=O)O)c1cccs1	> 100 µM (inactive)	> 100 µM (inactive)	> 100 µM (inactive)	> 100 µM (inactive)	> 100 µM (inactive)	> 100 µM (inactive)	> 100	> 100 µM (inactive)	> 100 µM (inactive)	> 100 µM (inactive)	> 100 µM (inactive)	> 100 µM (inactive)	> 100 µM (inactive)	> 100 µM (inactive)	> 100 µM (inactive)	> 100 µM (inactive)	> 100 µM (inactive)	> 100 µM (inactive)	–
COc1ccccc1-n1cnc2c1=NC(C)(C)NC=2C(N)=O	> 100 µM (inactive)	> 100 µM (inactive)	> 100 µM (inactive)	–	> 100 µM (inactive)	> 100 µM (inactive)	> 100	> 100 µM (inactive)	> 100 µM (inactive)	> 100 µM (inactive)	> 100 µM (inactive)	> 100 µM (inactive)	> 100 µM (inactive)	> 100 µM (inactive)	> 100 µM (inactive)	> 100 µM (inactive)	> 100 µM (inactive)	> 100 µM (inactive)	> 100 µM (inactive)
CC1(c2cccc(C(F)(F)F)c2)CC(c2cccc(C(F)(F)F)c2)=C(C#N)C(=C(C#N)C#N)N1 (stereo unspecified)	17.4 µM (inactive)	11.9 µM (inactive)	17.1 µM (inactive)	2.3 µM (inactive)	18.4 µM (inactive)	15 µM (inactive)	16.4	18.7 µM (inactive)	18.1 µM (inactive)	2.88 µM (inactive)	16 µM (inactive)	18.8 µM (inactive)	17.2 µM (inactive)	14.6 µM (inactive)	15 µM (inactive)	17.1 µM (inactive)	19.6 µM (inactive)	17.5 µM (inactive)	–
